Data: patent publication US20070032513A1, “Quinazoline derivatives” (priority 2003, published 2007)

Key:
EGFR tyrosine kinase = target: T1, EGFR tyrosine kinase (Homo sapiens, UniProt P00533); assay: Protein tyrosine kinase phosphorylation assay, Test (a); format: biochemical; conditions: recombinant intracellular fragment, ATP at Km concentration; read-out: IC50 (nM) Test (a) (Inhibition of EGFR tyrosine kinase protein phosphorylation)
T1 construct: Recombinant intracellular fragments of EGFR, erbB2 and erbB4; made in house; host or cells: baculovirus/Sf21 insect cells (cleared lysate used)
Protocol: This test measures the ability of a test compound to inhibit the phosphorylation of a tyrosine containing polypeptide substrate by EGFR, erbB2 or erbB4 tyrosine kinase enzyme.
Recombinant intracellular fragments of EGFR, erbB2 and erbB4 (accession numbers X00588, X03363 and L07868 respectively) were cloned and expressed in the baculovirus/Sf21 system. Lysates were prepared from these cells by treatment with ice-cold lysis buffer (20 mM N-2-hydroxyethylpiperizine-N′-2-ethanesulfonic acid (HEPES) pH7.5, 150 mM NaCl, 10% glycerol, 1% Triton X-100, 1.5 mM MgCl2, 1 mM ethylene glycol-bis(β-aminoethyl ether) N′,N′,N′,N′-tetraacetic acid (EGTA), plus protease inhibitors and then cleared by centrifugation.
Constitutive kinase activity of these recombinant proteins was determined by their ability to phosphorylate a synthetic peptide (made up of a random co-polymer of Glutamic Acid, Alanine and Tyrosine in the ratio of 6:3:1). Specifically, Maxisorb™ 96-well immunoplates were coated with synthetic peptide (0.2 μg of peptide in a 200 μl phosphate buffered saline (PBS) solution and incubated at 4° C. overnight). Plates were washed in 50 mM HEPES pH 7.4 at room temperature to remove any excess unbound synthetic peptide. EGFR or erbB2 activities were assessed by incubation in peptide coated plates for 20 minutes at room temperature in 100 mM HEPES pH 7.4 at room temperature, adenosine trisphosphate (ATP) at Km concentration for the respective enzyme, 10 mM MnCl2, 0.1 mM Na3VO4, 0.2 mM DL-dithiothreitol (DIT), 0.1% Triton X-100 with test compound in DMSO (final concentration of 2.5%). Reactions were terminated by the removal of the liquid components of the assay followed by washing of the plates with PBS-T (phosphate buffered saline with 0.5% Tween 20).
The immobilised phospho-peptide product of the reaction was detected by immunological methods. Firstly, plates were incubated for 90 minutes at room temperature with anti-phosphotyrosine primary antibodies that were raised in the mouse (4G10 from Upstate Biotechnology). Following extensive washing, plates were treated with Horseradish Peroxidase (HRP) conjugated sheep anti-mouse secondary antibody (NXA931 from Amersham) for 60 minutes at room temperature. After further washing, HRP activity in each well of the plate was measured colorimetrically using 22′-Azino-di-[3-ethylbenzthiazoline sulfonate (6)] diammonium salt crystals (ABTS™ from Roche) as a substrate.
Quantification of colour development and thus enzyme activity was achieved by the measurement of absorbance at 405 nm on a Molecular Devices ThermoMax microplate reader. Kinase inhibition for a given compound was expressed as an IC50 value. […] The range of phosphorylation was calculated from the positive (vehicle plus ATP) and negative (vehicle minus ATP) control values.

KB cells = assay: EGFR driven KB cell proliferation assay, Test (b); format: cell-based; conditions: Homo sapiens, 96 h, EGF 1 ng/ml, incubation for 4 days, MTT
Protocol: This assay measures the ability of a test compound to inhibit the proliferation of KB cells (human naso-pharangeal carcinoma obtained from the American Type Culture Collection (ATCC)).
KB cells were cultured in Dulbecco's modified Eagle's medium (DMEM) containing 10% foetal calf serum, 2 mM glutamine and non-essential amino acids at 37° C. in a 7.5% CO2 air incubator. Cells were harvested from the stock flasks using Trypsin/ethylaminediaminetetraacetic acid EDTA). Cell density was measured using a haemocytometer and viability was calculated using trypan blue solution before being seeded at a density of 1.25×10^3 cells per well of a 96 well plate in DMEM containing 2.5% charcoal stripped serum, 1 mM glutamine and non-essential amino acids at 37° C. in 7.5% CO2 and allowed to settle for 4 hours.
Following adhesion to the plate, the cells are treated with or without EGF (final concentration of 1 ng/ml) and with or without compound at a range of concentrations in dimethylsulfoxide (DMSO) (0.1% final) before incubation for 4 days. Following the incubation period, cell numbers were determined by addition of 50 μl of 3-(4,5-Dimethylthiazol-2-yl)-2,5-diphenyltetrazolium bromide (MTT) (stock 5 mg/ml) for 2 hours. MIT solution was then tipped off, the plate gently tapped dry and the cells dissolved upon the addition of 100 μl of DMSO.
Absorbance of the solubilised cells was read at 540 nm using a Molecular Devices ThermoMax microplate reader. Inhibition of proliferation was expressed as an IC50 value. […] The range of proliferation was calculated from the positive (vehicle plus EGF) and negative (vehicle minus EGF) control values.

T1 sequence (P00533 669-1210 limits assumed): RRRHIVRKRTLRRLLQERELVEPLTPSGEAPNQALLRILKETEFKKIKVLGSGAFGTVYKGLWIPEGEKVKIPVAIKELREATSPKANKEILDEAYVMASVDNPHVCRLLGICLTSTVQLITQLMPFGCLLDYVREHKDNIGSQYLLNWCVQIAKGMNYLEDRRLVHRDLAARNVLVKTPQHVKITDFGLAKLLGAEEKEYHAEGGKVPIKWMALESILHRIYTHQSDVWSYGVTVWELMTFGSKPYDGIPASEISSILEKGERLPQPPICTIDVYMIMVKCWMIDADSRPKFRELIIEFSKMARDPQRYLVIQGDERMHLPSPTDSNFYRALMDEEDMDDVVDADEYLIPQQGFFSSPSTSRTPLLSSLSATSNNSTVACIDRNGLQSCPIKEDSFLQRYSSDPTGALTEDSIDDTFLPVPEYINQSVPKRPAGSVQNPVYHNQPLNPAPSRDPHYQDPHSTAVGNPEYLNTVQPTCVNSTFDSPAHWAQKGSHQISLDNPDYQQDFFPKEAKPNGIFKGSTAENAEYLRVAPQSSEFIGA

IC50 (EGFR tyrosine kinase) [nM] | IC50 (KB cells) [nM] | melting point [°C] | Structure (SMILES)
8 | 48 |  | COc1cc2c(Nc3cccc(Cl)c3F)ncnc2cc1OC1CN(C(=O)[C@@H](C)O)C1 [Example 4, (2R)-1-[3-({4-[3-Chloro-2-fluoroanilino]-6-methoxyquinazolin-7-yl}oxy)azetidin-1-yl]-1-oxopropan-2-ol]
217 | 119 | 73 to 77 | COCC(=O)N1CC[C@@H](Oc2cc3ncnc(Nc4cccc(Cl)c4F)c3cc2OC)C1 [Example 5, N-(3-Chloro-2-fluorophenyl)-6-methoxy-7-{[(3R)-1-(methoxyacetyl)pyrrolidin-3-yl]oxy}quinazolin-4-amine]
41 | 397 |  | COc1cc2c(Nc3cccc(Cl)c3F)ncnc2cc1OC1CCN(C(=O)C2CCC(=O)N2)CC1 (stereo not drawn) [6[5], 5-{[4-({4-[3-chloro-2-fluoroanilino]-6-methoxyquinazolin-7-yl}oxy)piperidin-1-yl]carbonyl}pyrrolidin-2-one]
17 | 71 |  | COc1cc2c(Nc3cccc(Cl)c3F)ncnc2cc1OC1CN(C(=O)[C@H](C)O)C1 [Example 3]
